Test results as given in patent US4264572A, “X-ray contrast media” (Schering Aktiengesellschaft, priority 1978, dated 1981).

What was measured:
[1] = tested on: rat; assay: general tolerance, LD50 i.v. in rat (7 days); format: in vivo; conditions: meglumine salts
[2] = coefficient of distribution in 1-butanol/tris-HCl buffer; format: physicochemical; conditions: pH 7.6, 1-butanol/tris-HCl buffer; meglumine salts
Description: It is furthermore seen from this table that the interaction of the new compounds with proteins is much less than that of the known comparison substances.

[3] = tested on: proteins
[4] = tested on: rat; assay: neural tolerance, ED50 pericerebral in rat (24 hours); conditions: meglumine salts

Row | SMILES | Tolerance LD50 i.v. (7 days) [1] | Coefficient of Distribution [2] | Protein Bond [3] | Tolerance ED50 pericerebral (24 hours) [4]
1 | CNC(=O)c1c(I)c(C(=O)NCC(=O)Nc2c(I)c(C(=O)O)c(I)c(C(=O)NCCO)c2I)c(I)c(N(C)C(=O)COC)c1I [A, 5-(3-N-methylmethoxyacetamido-5-methylcarbamoyl-2,4,6-triiodine-benzamidoacetamido)-N-(2-hydroxyethyl)-2,4,6-triiodine-isophthalamic acid] | ~ 10,000 mg I/kg of rat | < 0.001 | 2.5 | ~ 100 mg I/kg of rat
2 | CNC(=O)c1c(I)c(C(=O)NCC(=O)Nc2c(I)c(C(=O)O)c(I)c(C(=O)NCCO)c2I)c(I)c(N(C)C(C)=O)c1I [B, 5-(3-N-methyl-acetamido-2,4,6-triiodine-5-methylcarbamoyl-benzamido-acetamido)-N-(2-hydroxyethyl)-2,4,6-triiodine-isophthalamic acid] | ~ 7,500 mg I/kg of rat | 0.033 | 6.8 | ~ 40 mg I/kg of rat
3 | CNC(=O)c1c(I)c(NC(C)=O)c(I)c(C(=O)O)c1I [C, 5-acetamido-2,4,6-triiodine-N-methyl-isophthalamic acid] | ~ 7,500 mg I/kg of rat | 0.017 | 7.6 | 60 mg I/kg of rat
